In publication PMC5482218 (Archiv der Pharmazie, 2016):

What was measured:
PC12 cells [1] = assay: LDH release cell viability assay, with and without 200 μM H2O2; assay type: cell-based, rat; conditions: for Attenuation of H2O2-induced LDH release: 200 μM H2O2 24 h, p<0.05; for LDH release by compound alone (inherent toxicity): absence of H2O2, 100 μM, PC12 cells
PC12 cells [2] = test system: PC12 cells
[3] = test system: L-type calcium channels (LTCC); assay: High-throughput fluorescence Ca2+ flux assay; conditions: for IC50: read-out: IC50 for the inhibition of K+-induced Ca2+ influx, PC12 cells loaded with Fura-2/AM, 10 min preincubation, depolarization with 50 mM KCl; for Dose-response profile / effect on K+-induced Ca2+ influx: PC12 cells, Fura-2/AM, 50 mM KCl

c1ccc(CNC23OC4C5C6CC(C7C6C4C72)C53)cc1 (stereo not drawn) [Compound 7a, 8-benzylamino-8,11-oxapentacyclo[5.4.0.0^2,6.0^3,10.0^5,9]undecane]
Attenuation of H2O2-induced LDH release (PC12 cells [1]; compound at 1, 10 and 100 μM): significant attenuation of LDH release | LDH release by compound alone (inherent toxicity) (PC12 cells [1]): some LDH release | Reduction of H2O2-induced toxicity (Trypan blue exclusion) (PC12 cells [2]; 200 μM H2O2, compound at 1, 10 and 100 μM, p<0.05): significant reduction | IC50 [3]: 86 µM

N-Benzyl-3,11-azatricyclo[6.3.0.0^2,6]undecane [Compound 14a]
IC50 [3]: 74 µM

3-Hydroxy-3,11-oxatricyclo[6.3.0.0^2,6]undecane [Compound 11]
Dose-response profile / effect on K+-induced Ca2+ influx [3]: potentiating effect

c1cc(CN2C3CCC4CC5CCC2C5C43)ccn1 (stereo not drawn) [Compound 14f, N-(Pyridin-4-ylmethyl)-3,11-azatricyclo[6.3.0.0^2,6]-undecane]
IC50 [3]: 5 µM

O=C1CCC2CC3CCC(=O)C3C12 (stereo not drawn) [Compound 10, Tricyclo[6.3.0.0^2,6]undecane-3,11-dione]
Dose-response profile / effect on K+-induced Ca2+ influx [3]: slight potentiating effect but no antagonistic activity

COc1cccc(CN2C3CCC4CC5CCC2C5C43)c1 (stereo not drawn) [Compound 14e, N-(3-Methoxybenzyl)-3,11-azatricyclo[6.3.0.0^2,6]undecane]
IC50 [3]: 11 µM

OC12C3C4CC5C6C4C1C6C(C53)N2CCc1ccccc1 (stereo not drawn) [Compound 8b, N-Phenylethyl-3-hydroxy-4-azahexacyclo[5.4.1.0^2,6.0^3,10 0^5,9.0^8,11]dodecane]
Attenuation of H2O2-induced LDH release (PC12 cells [1]; compound at 1 and 10 μM): significant attenuation of LDH release | LDH release by compound alone (inherent toxicity) (PC12 cells [1]): some LDH release | Protection in the cell viability assay (Trypan blue) (PC12 cells [2]; 200 μM H2O2, concentration not stated): able to offer protection | Change in cell viability by compound alone (Trypan blue exclusion) (PC12 cells [2]; absence of H2O2, 10 and 100 μM, versus untreated cells): slight decrease in cell viability | IC50 [3]: 8 µM

CCCCCCCN1C2C3C4CC5C6C4C2C6C1(O)C53 (stereo not drawn) [Compound 8c, N-Heptyl-3-hydroxy-4-azahexacyclo[5.4.1.0^2,6.0^3,10.0^5,9. 0^8,11]dodecane]
IC50 [3]: 7 µM

OC12C3C4CC5C6C4C1C6C(C53)N2Cc1ccccc1 (stereo not drawn) [Compound 8a, N-Benzyl-3-hydroxy-4-azahexacyclo[5.4.1.0^2,6.0^3,10.0^5,9. 0^8,11]dodecane]
IC50 [3]: 35 µM

N-Cyclohexylmethyl-3,11-azatricyclo[6.3.0.0^2,6]undecane [Compound 14d]
IC50 [3]: 68 µM

O=C1C2C3CC4C2C(=O)C2C1C3C42 (stereo not drawn) [Compound 4, Pentacyclo[5.4.0.0^2,6.0^3,10.0^5,9]undecane-8,11-dione]
Dose-response profile / effect on K+-induced Ca2+ influx [3]: no activity
